Source: ChEMBL document CHEMBL1150841, “Mirabilin G: a new alkaloid from a southern Australian marine sponge, Clathria species” (J Nat Prod, 2001)
Calls of active or inactive are those of the source.

Legend:
Type in all cases: functional, organism-based
Escherichia coli = assay: Antimicrobial activity against Escherichia coli
Serratia marcescens = assay: Antimicrobial activity against Serratia marcescens
Saccharomyces cerevisiae = assay: Antimicrobial activity against Saccharomyces cerevisiae

Measured: inhibition

CCCC/C=C/C1=C2NC(=N)N[C@H]3CC[C@@H](C[C@@H]1C)[C@@H]23
active: all assays above
